Measured values taken from PubChem BioAssay (NCI).
Several values for one entry are separate records, joined by “and”; a condition that tells them apart may be missing. Equal values may be shown once.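 Method: 48-hour compound exposure of cells in 96-well plates, five concentrations, linear interpolation of endpoints. GI50 = concentration required for 50% inhibition of growth. TGI is the concentration that stops growth completely.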

Experiments:
Experiment in all cases: NCI tumour cell line growth inhibition, 48 h
[1] = tested on: BT-549 breast
[2] = tested on: HCC-2998 colon
[3] = tested on: HS 578T breast
[4] = tested on: MCF7 breast
[5] = tested on: MDA-MB-231 breast
[6] = tested on: NCI-H226 lung
[7] = tested on: NCI/ADR-RES ovarian
[8] = tested on: RPMI-8226 leukemia
[9] = tested on: SF-539 CNS
[10] = tested on: M19-MEL melanoma

| SMILES | TGI [1] [µM] | TGI [2] [µM] | TGI [3] | TGI [4] [µM] | TGI [5] [µM] | TGI [6] | TGI [7] | TGI [8] [µM] | TGI [9] [µM] | GI50 [3] | GI50 [10] [µM] | TGI [10] | GI50 [4] [µM] | GI50 [5] | GI50 [6] | GI50 [7] | GI50 [8] | GI50 [9] | GI50 [1] [µM] | GI50 [2] [µM] |
| --- | --- | --- | --- | --- | --- | --- | --- | --- | --- | --- | --- | --- | --- | --- | --- | --- | --- | --- | --- | --- |
| O=C(c1cc(Cl)cc(Cl)c1)N(Cc1cccnc1)C(=S)N(Cc1cccnc1)C(=O)c1cc(Cl)cc(Cl)c1 | 81.5 | 49.6 | > 100 µM | > 100 | 71.5 | > 100 µM | > 100 µM | > 100 | 51.4 | – | – | – | – | – | – | – | – | – | – | – |
| CC[C@@]1(O)C(=O)OCc2c1cc1n(c2=O)Cc2cc3c(CN(C)C)c(O)ccc3nc2-1 | – | – | 96.6 µM and 12.2 µM and 39.6 µM | – | – | 1.28 µM [middle of 4 runs] | 3.22 µM and 19.7 µM and 4.78 µM | – | – | 1.27 µM and 5.8 µM and 1.88 µM | 0.603 | 5.17 µM and 1.36 µM | < 0.01 | 0.847 µM and 0.393 µM and 3.22 µM | 0.0153 µM and 0.0964 µM and 0.0626 µM | 0.0737 µM and 0.355 µM and 0.105 µM | 0.163 µM and 0.0818 µM and 0.435 µM | < 0.01 µM and 0.00383 µM and 0.0215 µM | – | – |
| O=c1ccn(Cc2ccccc2CCl)c(=O)[nH]1 | – | 59 | 91.2 µM | 77.9 | – | – | 44.4 µM | – | 52.7 | – | – | – | – | – | – | – | – | – | – | – |
| O=c1ccc2c(Cl)cccc2o1 | > 100 | > 100 | > 100 µM | > 100 | > 100 | > 100 µM | > 100 µM | > 100 | > 100 | – | – | – | – | – | – | – | – | – | – | – |
| O=c1oc2ccc3ccccc3c2cc1-c1nc(-c2ccc([N+](=O)[O-])cc2)n[nH]1 | 79.8 | > 100 | 45.6 µM | > 100 | – | – | > 100 µM | > 100 | 39.4 | – | – | – | – | – | – | – | – | – | – | – |
| O=C(CC(Cc1ccccc1)c1ccc(Oc2ccccc2)cc1)Nc1cccc(Cl)c1 (centres undefined) | 75.9 | 31.8 | > 100 µM | 18.3 | 53.8 | 73.2 µM | 38.3 µM | 17.3 | > 100 | – | – | – | – | – | – | – | – | – | – | – |
| Fc1cc(C2=Nn3c(CNc4ccc(Cl)cc4)nnc3S/C2=C\c2ccc(-c3ccc(Cl)cc3)o2)c(Cl)cc1Cl | > 100 | > 100 | > 100 µM | > 100 | 32.2 | > 100 µM | 27.5 µM | 79.1 | – | – | – | – | – | – | – | – | – | – | – | – |
| CC(C)(C)CNCCCNc1ccc(Cl)cc1 | > 100 | – | > 100 µM | 46 | 82.3 | 78.7 µM | > 100 µM | 55.4 | > 100 | – | – | – | – | – | – | – | – | – | – | – |
| OC(c1ccccc1)C1CC2C=CC1C2 (centres undefined) | – | – | – | – | – | – | – | > 100 | > 100 | – | – | > 100 µM | – | – | – | – | – | – | – | – |
| Clc1ccc(OCc2nnc3sc(SSc4nn5c(COc6ccc(Cl)cc6)nnc5s4)nn23)cc1 | > 100 | > 100 | > 100 µM | > 100 | > 100 | > 100 µM | > 100 µM | > 100 | > 100 | – | – | – | 45 | – | – | – | – | – | 48.1 | 16.1 |
| CSC1=C(SC)C(=O)c2cn(C)c(=O)cc2C1=O | 3.71 | 35.8 | > 26.5 µM | 4.49 | 3.7 | 40.4 µM | > 100 µM | > 100 | 25.3 | – | – | – | – | – | – | – | – | – | – | – |
| C1=Nc2ccccc2Cn2nncc21 | – | > 100 | – | – | – | > 100 µM | – | > 100 | > 100 | – | – | > 100 µM | – | – | – | – | – | – | – | – |
| CC(C)=CC1C(COC(=O)c2ccccc2Cl)C1(C)C (centres undefined) | 95.1 | – | 60.1 µM | – | > 100 | 82.2 µM | > 100 µM | – | – | – | – | – | – | – | – | – | – | – | – | – |
| CC(C(=O)NCCNC(=O)CCCC(=O)N(C)O)C(=O)NCCNC(=O)CCCC(=O)N(C)O | – | > 100 | > 100 µM | > 100 | > 100 | > 100 µM | > 100 µM | > 100 | – | – | – | – | – | – | – | – | – | – | – | – |
| CC1=NN(c2cccc(Cl)c2)C2(C1=Cc1cccs1)C(Cl)C(=O)N2c1nc2ccccc2s1 (centres undefined) | 49.4 | 35.3 | 68.7 µM | 69.5 | 41.4 | 53.5 µM | 45.4 µM | 43.6 | 30.5 | – | – | – | – | – | – | – | – | – | – | – |
| COc1ccc(N2C(=O)C(=O)N(C)C2=O)c2ccccc12 | – | > 10 | > 10 µM | > 10 | > 10 | > 10 µM | > 10 µM | > 10 | > 10 | – | – | – | – | – | – | – | – | – | – | – |
| OCC(O)C(O)C(O)C(O)CNCCO/N=C1/C(c2c(O)[nH]c3ccccc23)=Nc2ccccc21 (centres undefined) | 41.7 | 28.7 | 44.4 µM | 33.1 | 29.7 | > 50 µM | > 50 µM | > 50 | 41.6 | – | – | – | – | – | – | – | – | – | – | – |
| O=S(=O)(Nc1nccs1)c1ccc([As](=O)(O)O)cc1 | > 100 | – | > 100 µM | > 100 | > 100 | > 100 µM | > 100 µM | > 100 | – | – | – | – | – | – | – | – | – | – | – | – |
| O=[N+]([O-])c1ccc(Cc2nc3cc4ccccc4cc3[nH]2)cc1C(F)(F)F | 43 | 30.1 | 49.9 µM | 55.5 | – | – | 23.9 µM | – | 39.1 | – | – | – | – | – | – | – | – | – | – | – |
| Fc1ccc(Nc2ncc(-c3cc(F)c(Cl)cc3Cl)s2)cc1Cl | 45.1 | – | 36.4 µM | 2.48 | 6.87 | > 100 µM | 32.5 µM | 25.1 | 32.5 | 11.5 µM | – | – | – | 2.15 µM | 7.92 µM | 17.7 µM | 9.38 µM | 10.5 µM | 20.2 | – |
| CC(C)NC(=O)OCc1nnn2c1CCC2 | – | > 100 | – | – | – | – | – | – | > 100 | – | – | > 100 µM | – | – | – | – | – | – | – | – |
| O=[N+]([O-])c1ccc(NNN=Nc2ccc(-c3nc4ccccc4[nH]3)cc2)c([N+](=O)[O-])c1 | > 100 | > 100 | > 100 µM | 57.6 | > 100 | > 100 µM | > 100 µM | – | > 100 | – | – | – | – | – | – | – | – | – | – | – |
| Clc1ccc(C2CC(c3cccc(Nc4ccncc4)c3)=NN2c2ccccc2)cc1 (centres undefined) | 3.38 | 3.06 | – | 3.44 | 3.21 | 39.5 µM | – | – | 3.09 | – | – | – | 1.65 | 1.7 µM | 16.4 µM | – | – | 1.7 µM | 1.72 | 1.6 |
| CC(C)C(=O)Nc1ccc(-c2nc(-c3cccc(OCCN4CCOCC4)c3)c(-c3ccnc(Br)c3)[nH]2)cc1 | 17.3 | 11.4 | 3.69 µM | 4.92 | > 100 | 19.8 µM | > 100 µM | 4 | 8.65 | 1.04 µM | – | – | 1.89 | 3.66 µM | 3.79 µM | 6.23 µM | 1.09 µM | 2.3 µM | 2.82 | 3.21 |
| COc1ccc(/C=C2\C[C@H]3[C@@H]4CC=C5C[C@@H](OC(C)=O)CC[C@]5(C)[C@H]4CC[C@]3(C)C2=O)cc1OC | > 100 | > 100 | > 100 µM | > 100 | – | > 100 µM | > 100 µM | > 100 | > 100 | – | – | – | – | – | – | – | – | – | – | – |
| N#CC(NNC(=O)c1c(Cl)c(Cl)c(Cl)c(Cl)c1-c1nc2ccc(C(=O)c3ccccc3)cc2[nH]1)c1ccccc1 (centres undefined) | > 100 | – | > 100 µM | 12.7 | 36.4 | 28.3 µM | 32.2 µM | 24.9 | 14.5 | – | – | – | – | – | – | – | – | – | – | – |
